What was measured:
AXL = biological target: T1, AXL (Homo sapiens, UniProt P30530); experiment: TR-FRET kinase activity assay, AXL; assay type: biochemical; settings: ATP at Km, 60 minutes
T1 sequence (P30530 26-894): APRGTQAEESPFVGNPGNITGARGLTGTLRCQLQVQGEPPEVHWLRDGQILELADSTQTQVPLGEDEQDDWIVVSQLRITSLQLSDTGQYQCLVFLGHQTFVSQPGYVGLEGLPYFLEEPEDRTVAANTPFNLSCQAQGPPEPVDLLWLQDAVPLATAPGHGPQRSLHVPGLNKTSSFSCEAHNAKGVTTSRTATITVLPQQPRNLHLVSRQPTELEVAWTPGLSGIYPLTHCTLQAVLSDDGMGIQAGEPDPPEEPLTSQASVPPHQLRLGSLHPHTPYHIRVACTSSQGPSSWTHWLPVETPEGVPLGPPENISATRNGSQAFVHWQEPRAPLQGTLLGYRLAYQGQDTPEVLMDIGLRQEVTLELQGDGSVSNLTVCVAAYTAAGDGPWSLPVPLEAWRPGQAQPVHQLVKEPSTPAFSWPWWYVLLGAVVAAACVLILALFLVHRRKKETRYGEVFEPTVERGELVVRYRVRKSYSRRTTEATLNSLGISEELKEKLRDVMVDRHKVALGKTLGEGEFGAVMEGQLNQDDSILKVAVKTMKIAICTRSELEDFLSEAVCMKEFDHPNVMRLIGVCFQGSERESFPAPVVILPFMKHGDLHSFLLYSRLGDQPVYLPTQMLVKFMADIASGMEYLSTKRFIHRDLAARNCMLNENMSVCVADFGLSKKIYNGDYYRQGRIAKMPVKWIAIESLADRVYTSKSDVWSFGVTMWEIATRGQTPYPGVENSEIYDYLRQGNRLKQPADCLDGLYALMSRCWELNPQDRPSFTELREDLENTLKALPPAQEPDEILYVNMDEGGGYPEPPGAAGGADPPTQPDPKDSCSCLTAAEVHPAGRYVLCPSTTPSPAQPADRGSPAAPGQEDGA
Method in brief: (§1)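 Enzyme, fluorescent-labeled peptide substrate and compound were mixed in 50 mM HEPES pH 7.5, 10 mM MgCl2, 1 mM EGTA, 0.01% Brij 35, 1 mM DTT at RT; ATP at each enzyme's Km started the reaction. After 60 min, EDTA quench and Eu-anti-phosphotyrosine-site antibody (30 min, dark); TR-FRET read, IC50 derived.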

FLT3 = biological target: T2, FLT3 (Homo sapiens, UniProt P36888); experiment: TR-FRET kinase activity assay, FLT3; assay type: biochemical; settings: ATP at Km, 60 minutes
T2 sequence (P36888 27-993): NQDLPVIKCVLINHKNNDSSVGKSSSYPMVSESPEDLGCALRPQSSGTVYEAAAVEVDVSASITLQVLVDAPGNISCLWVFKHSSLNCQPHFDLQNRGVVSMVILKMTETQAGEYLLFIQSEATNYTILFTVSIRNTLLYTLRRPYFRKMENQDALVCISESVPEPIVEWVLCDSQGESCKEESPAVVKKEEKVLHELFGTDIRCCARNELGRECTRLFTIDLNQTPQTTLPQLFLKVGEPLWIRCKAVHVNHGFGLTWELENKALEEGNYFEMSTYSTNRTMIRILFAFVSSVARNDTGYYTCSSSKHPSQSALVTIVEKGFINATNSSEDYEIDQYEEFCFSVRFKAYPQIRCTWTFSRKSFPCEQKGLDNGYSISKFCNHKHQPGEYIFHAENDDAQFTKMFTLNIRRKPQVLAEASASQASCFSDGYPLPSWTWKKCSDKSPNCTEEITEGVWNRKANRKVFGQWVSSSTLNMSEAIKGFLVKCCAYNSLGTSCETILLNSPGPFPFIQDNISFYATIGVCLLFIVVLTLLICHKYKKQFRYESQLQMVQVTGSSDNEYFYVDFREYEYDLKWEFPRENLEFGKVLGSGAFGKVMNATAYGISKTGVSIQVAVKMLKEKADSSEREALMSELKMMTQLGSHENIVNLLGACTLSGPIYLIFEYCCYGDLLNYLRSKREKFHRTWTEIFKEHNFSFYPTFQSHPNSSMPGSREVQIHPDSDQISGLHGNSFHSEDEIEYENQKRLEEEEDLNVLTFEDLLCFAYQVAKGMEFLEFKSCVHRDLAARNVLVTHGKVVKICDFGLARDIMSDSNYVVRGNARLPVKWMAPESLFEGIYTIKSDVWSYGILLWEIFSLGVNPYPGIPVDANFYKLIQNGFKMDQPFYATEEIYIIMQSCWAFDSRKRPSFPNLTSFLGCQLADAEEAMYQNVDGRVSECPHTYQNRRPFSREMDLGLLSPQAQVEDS
Method in brief: as §1

SMILES | IC50 (AXL) | IC50 (FLT3)
COC[C@H](C)Nc1ncc2c(OC3CCOCC3)ncc(-c3ccc(C4CCN(C)CC4)cc3)c2n1 [Compound 280] | 0.1 to 1 µM | 1 to 10 µM
COCC[C@H](C)Nc1ncc2c(OC3CCOCC3)ncc([C@H]3CC[C@H](O)CC3)c2n1 [Compound 312] | 1 to 10 µM | 1 to 10 µM
COC[C@H](C)Nc1ncc2c(OC3CCN(c4ncccn4)CC3)ncc([C@H]3CC[C@H](O)CC3)c2n1 [Compound 344] | 0.1 to 1 µM | 1 to 10 µM
CCCC(C)Nc1ncc2c(=O)n(C3CCNCC3)cc([C@H]3CC[C@H](O)CC3)c2n1 (stereo partly shown) [Compound 112] | 0.1 to 1 µM | 1 to 10 µM
CNC(=O)Nc1ccc(-c2cnc(OC3CCOCC3)c3cnc(N[C@@H](C)COC)nc23)cc1 [Compound 297] | 1 to 10 µM | 1 to 10 µM
COC[C@H](C)Nc1ncc2c(OC3CCOCC3)ncc(-c3ccc(N)cc3)c2n1 [Compound 309] | 1 to 10 µM | 1 to 10 µM
COC[C@H](C)Nc1ncc2c(OC3CCOCC3)ncc(-c3cccc(S(N)(=O)=O)c3)c2n1 [Compound 328] | 1 to 10 µM | 1 to 10 µM
CN(C)S(=O)(=O)c1cccc(-c2cnc(OC3CCOCC3)c3cnc(NC4(C)CC4)nc23)c1 [Compound 322] | 0.1 to 1 µM | 0.1 to 1 µM
CC1(Nc2ncc3c(OC4CCNCC4)ncc([C@H]4CC[C@H](O)CC4)c3n2)CC1 [Compound 291] | 0.1 to 1 µM | 1 to 10 µM
COC[C@H](C)Nc1ncc2c(OC3CCOCC3)ncc([C@@H]3CCCN(C)C3)c2n1 [Compound 333] | 1 to 10 µM | 1 to 10 µM
C[C@@H](CC(F)(F)F)Nc1ncc2c(OC3CCN(C)CC3)ncc([C@H]3CC[C@H](O)CC3)c2n1 [Compound 352] | 0.1 to 1 µM | 1 to 10 µM
COC[C@H](C)Nc1cc2c(cn1)c(OC1CCOCC1)ncc2[C@H]1CC[C@H](O)CC1 [Compound 285] | 1 to 10 µM | 1 to 10 µM
O[C@H]1CC[C@H](c2cnc(OC3CCOCC3)c3cnc(N[C@H]4CCC(F)(F)C4)nc32)CC1 [Compound 336] | 0.1 to 1 µM | 0.1 to 1 µM
COC[C@H](C)Nc1ncc2c(OC3CCOCC3)ncc(-c3cn[nH]c3)c2n1 [Compound 347] | 1 to 10 µM | 0.1 to 1 µM
CC[C@H](C)Nc1ncc2c(=O)n([C@H]3CC[C@H](N)CC3)cc([C@H]3CC[C@H](O)CC3)c2n1 [Compound 290] | 0.1 to 1 µM | 1 to 10 µM
COC[C@H](C)Nc1ncc2c(OC3CCN(S(C)(=O)=O)CC3)ncc([C@H]3CC[C@H](O)CC3)c2n1 [Compound 289] | 0.1 to 1 µM | 1 to 10 µM
COC[C@H](C)Nc1ncc2c(OC3CCOCC3)ncc(-c3ccc(CO)cc3)c2n1 [Compound 335] | 1 to 10 µM | 1 to 10 µM
COC[C@@H](C)Nc1ncc2c(OC3CC(O)C3)ncc([C@H]3CC[C@H](O)CC3)c2n1 (stereo partly shown) [Compound 351] | 1 to 10 µM | 1 to 10 µM
COC[C@H](C)Nc1ncc2c(OC3CCOCC3)ncc(C3CCCCN3C)c2n1 (stereo partly shown) [Compound 350] | 1 to 10 µM | 1 to 10 µM

SMILES | IC50 (AXL) | IC50 (FLT3)
COC[C@H](C)Nc1ncc2c(OC3CCOCC3)ncc([C@H]3CC[C@@](O)(C(F)(F)F)CC3)c2n1 [Compound 329] | 0.1 to 1 µM | 1 to 10 µM
CC(C)CC(C)Nc1ncc2c(=O)n(C3CCNCC3)cc([C@H]3CC[C@H](O)CC3)c2n1 (stereo partly shown) [Compound 119] | 0.1 to 1 µM | 1 to 10 µM
COC[C@H](C)Nc1ncc2c(C)ncc([C@H]3CC[C@H](O)CC3)c2n1 [Compound 303] | 0.1 to 1 µM | 1 to 10 µM
COC[C@H](C)Nc1ncc2c(OC3CCOCC3)ncc([C@H]3CC[C@H](NS(C)(=O)=O)CC3)c2n1 [Compound 316] | 1 to 10 µM | 1 to 10 µM
CC[C@H](C)Nc1ncc2c(O[C@H]3CC[C@](C)(O)CC3)ncc([C@H]3CC[C@H](O)CC3)c2n1 [Compound 287] | 0.1 to 1 µM | 0.1 to 1 µM
COCCN1C(C)(C)CC(Oc2ncc([C@H]3CC[C@H](O)CC3)c3nc(N[C@@H](C)COC)ncc23)CC1(C)C [Compound 310] | ≤ 0.1 µM | 1 to 10 µM
C[C@H](CC(F)(F)F)Nc1ncc2c(OC3CCOCC3)ncc([C@H]3CC[C@H](O)CC3)c2n1 [Compound 338] | 1 to 10 µM | 1 to 10 µM
COC[C@H](C)Nc1ncc2c(OC3CCOCC3)ncc(-c3cccc(C#N)c3)c2n1 [Compound 320] | 1 to 10 µM | 1 to 10 µM
CC(C)Nc1ncc2c(OC3CCOCC3)ncc(-c3cccc(S(C)(=O)=O)c3)c2n1 [Compound 313] | 0.1 to 1 µM | 1 to 10 µM
CNC(=O)N[C@H]1CC[C@H](c2cnc(OC3CCOCC3)c3cnc(N[C@@H](C)COC)nc32)CC1 [Compound 340] | 1 to 10 µM | 1 to 10 µM
COC[C@H](C)Nc1ncc2c(OC3CCOCC3)ncc(-c3ccc(N)nc3)c2n1 [Compound 337] | 1 to 10 µM | 1 to 10 µM
COC[C@H](C)Nc1ncc2c(OC3CCOCC3)ncc([C@H]3CC[C@](O)(C(F)(F)F)CC3)c2n1 [Compound 330] | 1 to 10 µM | 1 to 10 µM
CNS(=O)(=O)N1CCC(c2cnc(OC3CCOCC3)c3cnc(N[C@@H](C)COC)nc23)CC1 [Compound 341] | 1 to 10 µM | 1 to 10 µM
COC[C@H](C)Nc1ncc2c(OC3CCOCC3)ncc(C3CCCCN3)c2n1 (stereo partly shown) [Compound 346] | 1 to 10 µM | 1 to 10 µM
CCOC[C@H](C)Nc1ncc2c(OC3CCOCC3)ncc([C@H]3CC[C@H](O)CC3)c2n1 [Compound 281] | 1 to 10 µM | 1 to 10 µM
COC[C@H](C)Nc1ncc2c(OC3CCOCC3)ncc([C@H]3CCCN(C)C3)c2n1 [Compound 332] | 1 to 10 µM | 1 to 10 µM
COC[C@H](C)Nc1ncc2c(OC3CCOCC3)ncc(-c3cnn([C@H]4CCN(C)C4)c3)c2n1 [Compound 334] | 1 to 10 µM | 1 to 10 µM
O[C@H]1CC[C@H](c2cnc(OC3CCOCC3)c3cnc(NCCC(F)(F)F)nc32)CC1 [Compound 286] | 0.1 to 1 µM | ≤ 0.1 µM
C[C@@H](CCO)Nc1ncc2c(OC3CCOCC3)ncc([C@H]3CC[C@H](O)CC3)c2n1 [Compound 284] | 1 to 10 µM | 1 to 10 µM

Reference: US20200291018A1, “TAM KINASE INHIBITORS” (SYROS PHARMACEUTICALS, INC., priority 2017, published 2020)
